The values that follow come from patent US20100129800A1, “POLYMERS AND THEIR USE AS FLUORESCENT LABELS” (priority 2007, published 2010).

The nature of one data set: Fluorescence properties of the new compounds (excitation and emission wavelengths).
Conditions: not given
Format: physicochemical.
On to `CC(O)C(COP(=O)(O)OC(C)C(CO)NC(=O)c1cc(-c2ccccc2)nc2ccccc12)NC(=O)c1c2ccccc2nc2c1[nH]c1ccccc12` (centres unmarked) [Example 37, O-{2-N-(2-phenylquinoline-4-carbamoyl-1-hydroxybutan-3-yl)} and O-(2-N-{10H-indolo[3,2-d]quinoline-11-carbamoyl}-3-hydroxybut-1-yl)], for which the “Fluorescence Excitation (nm)” value came out at 342 nm and the “Fluorescence emission (nm)” value is 492 nm.

The same data set, now with this note: free compound.
Regarding `CC(O)C(COP(=O)(O)OC(C)C(CO)NC(=O)c1cc(-c2ccccc2)nc2ccccc12)NC(=O)c1c2ccccc2nc2ccccc12` (centres unmarked) [Example 34, O-{2-N-(2-phenylquinoline-4-carbamoyl-1-hydroxybutan-3-yl)} and O-{2-N-(acridine-9-carbamoyl)-3-hydroxybut-1-yl} phosphate], the “Fluorescence Excitation (nm)” value is on record as 252 nm and the “Fluorescence emission (nm)” value is reported as 437 nm.
Taken in the same sequence, the figures for `CC(O)C(COP(=O)(O)OC(C)C(CO)NC(=O)c1cc(-c2ccccc2)nc2ccccc12)NC(=O)c1cc(-c2ccccc2)nc2ccccc12` (centres unmarked) [Example 35, O-{2-N-(2-phenylquinoline-4-carbamoyl-1-hydroxybutan-3-yl)} and O-{2-N-(2-phenylquinoline-4-carbamoyl-3-hydroxybutan-1-yl)} phosphate] were 330 nm and 395 nm.
Consider `CC(O)C(COP(=O)(O)OC(C)C(CO)NC(=O)c1c2ccccc2nc2ccccc12)NC(=O)c1cc(-c2ccccc2)nc2ccccc12` (centres unmarked) [Example 36, O-{2-N-(acridine-9-carbamoyl)-1-hydroxybut-3-yl} and O-{2-N-(2-phenylquinoline-4-carbamoyl-3-hydroxybutan-1-yl)} phosphate], for which the “Fluorescence Excitation (nm)” value is recorded as 252 nm and the “Fluorescence emission (nm)” value was 403 nm.
Taken in the same sequence, the figures for `CC(O)C(COP(=O)(O)OC(C)C(COP(=O)(O)OC(C)C(CO)NC(=O)c1c2ccccc2nc2ccccc12)NC(=O)c1c2ccccc2nc2c1[nH]c1ccccc12)NC(=O)CNC(=O)c1c2ccccc2nc2ccccc12` (centres unmarked) [Example 38, O-{2-N-(Acridine-9-carbamoyl)-(1-hydroxybut-3-yl)} phosphate (3-1) O-{2-N-(10H-indolo[3,2-d]quinoline-11-carbamoyl)-3-oxybut-1-yl} phosphate (3-1) O-{2-N-(acridine-9-carboxamido)acetamidol-(3-hydroxybut-1-yl)}] were 359 nm and 438 nm.
On to `CC(OP(=O)(O)OCC(O)CNc1c2nc3ccccc3c-2n(C)c2ccccc12)C(CO)NC(=O)c1c2ccccc2nc2c1[nH]c1ccccc12` [Example 41, O-{2-N-(10H-indolo[3,2-d]quinoline-11-carbamoyl)-3-oxybut-1-yl} phosphate (3-1) O-{3-(5-methyl-5H-indolo[3,2-b]quinolin-11-ylamino-(S)-(2hydroxylprop-3-yl)], for which the “Fluorescence Excitation (nm)” value came to 275 nm and the “Fluorescence emission (nm)” value is 476 nm.
Taken in the same sequence, the figures for `CC(O)C(COP(=O)(O)OC(C)C(COP(=O)(O)OC(C)C(CO)NC(=O)c1c2ccccc2nc2ccccc12)NC(=O)c1c2ccccc2nc2ccccc12)NC(=O)c1c2ccccc2nc2ccccc12` (centres unmarked) [Example 43, O-{2-N-(Acridine-9-carbamoyl)-(1-hydroxybut-3-yl)} phosphate (3-1) O-{2-N-(acridine-9-carbamoyl)-(1-hydroxybut-3-yl)} phosphate (3-1) O-{2-N-(acridine-9-carbamoyl)-(3-hydroxybut-1-yl)}] were 360 nm and 440 nm.
Take `CC(O)C(COP(=O)(O)OC(C)C(COP(=O)(O)OC(C)C(CO)NC(=O)c1c2ccccc2nc2ccccc12)NC(=O)c1c2ccccc2nc2c1[nH]c1ccccc12)NC(=O)Cn1c2nc3ccccc3c-2cc2ccccc21` (centres unmarked) [Example 45, O-{2-N-(Acridine-9-carbamoyl)-(1-hydroxybut-3-yl)} phosphate (3-1) O-{2-N-(10H-indolo[3,2-d]quinoline-11-carbamoyl)-3-oxybut-1-yl} phosphate (3-1) O-{2-N-(5H-indolo[2,3-b]quinolin-5-yl)acetamido-3-hydroxybut-1-yl)]: the “Fluorescence Excitation (nm)” value came out at 271 nm and the “Fluorescence emission (nm)” value worked out at 449 nm.
In the case of `CC(=O)NCCN(CC(=O)NCCN(CC(=O)NCCCCCCO)C(=O)CNC(=O)c1c2ccccc2nc2ccccc12)C(=O)CNC(=O)c1c2ccccc2nc2ccccc12` [Example 46], the “Fluorescence Excitation (nm)” value worked out at 248 nm and the “Fluorescence emission (nm)” value worked out at 441 nm.
Taken in the same sequence, the figures for `CC(=O)NCCN(CC(=O)NCCN(CC(=O)NCCN(CC(=O)NCCCCCCO)C(=O)CNC(=O)c1c2ccccc2nc2ccccc12)C(=O)CNC(=O)c1c2ccccc2nc2ccccc12)C(=O)CNC(=O)c1c2ccccc2nc2ccccc12` [Example 47] were 360 nm and 436 nm.
In the case of `CC(=O)NC1CC(C(N)=O)N(C(=O)CNC(=O)c2c3ccccc3nc3ccccc23)C1` (centres unmarked) [Example 50, N-[2-(Acridine-9-carboxamide)acetyl]-4-N-acetamidoprolinamide], the “Fluorescence Excitation (nm)” value stood at 282 nm and the “Fluorescence emission (nm)” value was found to be 439 nm.
Regarding `CC(=O)NC1CC(C(N)=O)N(C(=O)CNC(=O)c2c3ccccc3nc3c2[nH]c2ccccc23)C1` (centres unmarked) [Example 51, N-{2-(10H-indolo[3,2-b]quinoline-11-carboxamide)acetyl}-4-N-acetamidoprolinamide], the “Fluorescence Excitation (nm)” value is given as 347 nm and the “Fluorescence emission (nm)” value is on record as 502 nm.
`CC(=O)N1CC(NC(=O)CNC(=O)c2c3ccccc3nc3ccccc23)C[C@H]1C(=O)N1CC(NC(=O)CNC(=O)c2c3ccccc3nc3ccccc23)C[C@H]1C(N)=O` (some centres unmarked) [Example 52, N^4-Acetyl-4-amino-{2-(acridine-9-carboxamide)acetyl}prolinyl-4-amino-{2-(acridine-9-carboxamide)acetyl}prolinamide]: the “Fluorescence Excitation (nm)” value was 274 nm and the “Fluorescence emission (nm)” value is 450 nm.
`CC(=O)N1CC(NC(=O)CNC(=O)c2c3ccccc3nc3c2[nH]c2ccccc23)C[C@H]1C(=O)N1CC(NC(=O)CNC(=O)c2c3ccccc3nc3c2[nH]c2ccccc23)C[C@H]1C(N)=O` (some centres unmarked) [Example 53, N^4-Acetyl-4-amino-{2-(10H-indolo[3,2-b]quinoline-11-carboxamide)acetyl}prolinyl-4-amino-{2-(10H-indolo[3,2-b]quinoline-11-carboxamide)acetyl}prolinamide]: the “Fluorescence Excitation (nm)” value was 348 nm.
`CC(=O)NC1CC(C(=O)NC2CC(C(N)=O)N(C(=O)CNC(=O)c3c4ccccc4nc4ccccc34)C2)N(C(=O)CNC(=O)c2c3ccccc3nc3c2[nH]c2ccccc23)C1` (centres unmarked) [Example 54, 10H-Indolo[3,2-b]quinoline-11-carboxylic acid {2-[4-acetylamino-2-(1-{2-[(acridine-9-carbonyl)-amino]-acetyl}-5-carbamoyl-pyrrolidin-3-ylcarbamoyl)-pyrrolidin-1-yl]-2-oxo-ethyl}-amide]: the “Fluorescence Excitation (nm)” value was determined as 273 nm and the “Fluorescence emission (nm)” value is on record as 498 nm.
